Tested on: panel of breast cancer cell lines
Assay: Compound A with targeted agents and chemotherapies, 72-hour in vitro proliferation assays
Format: cell-based
Settings: 72-hour proliferation
[1] = AU565 cell line, compound A × partner
[2] = BT-20 cell line, compound A × partner
[3] = BT-474 cell line, compound A × partner
[4] = BT-549 cell line, compound A × partner
[5] = CAL-51 cell line, compound A × partner
[6] = CAL-85-1 cell line, compound A × partner
[7] = CAL-120 cell line, compound A × partner
[8] = CAL-148 cell line, compound A × partner
[9] = CAMA-1 cell line, compound A × partner
[10] = DU-4475 cell line, compound A × partner
[11] = EVSA-T cell line, compound A × partner
[12] = HCC1143 cell line, compound A × partner
[13] = MCF7 cells, Compound A × partner agent
[14] = MDA-MB-175-VII cells, Compound A × partner agent
[15] = MDA-MB-231 cells, Compound A × partner agent
[16] = MDA-MB-361 cells, Compound A × partner agent
[17] = MDA-MB-436 cells, Compound A × partner agent
[18] = MDA-MB-453 cells, Compound A × partner agent
[19] = MDA-MB-468 cells, Compound A × partner agent
[20] = SK-BR-3 cells, Compound A × partner agent
[21] = SUM159PT cells, combination of compound A with the named agent
[22] = T47D cells, combination of compound A with the named agent
[23] = ZR-75-1 cells, combination of compound A with the named agent
[24] = ZR-75-30 cells, combination of compound A with the named agent

Question: Which results are given for `N.N.[Cl][Pt][Cl]` [Cisplatin]?
Answer: Best CI [1]: 0.79; Bliss Volume [1]: 7.67; HSA volume [1]: −6.49; Loewe Volume [1]: −5.19; Synergy Score [1]: 1.66; Best CI [2]: 0.90; Bliss Volume [2]: 13.49; HSA volume [2]: −0.68; Loewe Volume [2]: −2.71; Synergy Score [2]: 2.27; Best CI [3]: 0.47; Bliss Volume [3]: −2.63; HSA volume [3]: −4.63; Loewe Volume [3]: −4.42; Synergy Score [3]: 2.85; Best CI [4]: 1.01; Bliss Volume [4]: 7.35; HSA volume [4]: 2.86; Loewe Volume [4]: 4.16; Synergy Score [4]: 6.80; Best CI [5]: 0.48; Bliss Volume [5]: 7.18; HSA volume [5]: 4.36; Loewe Volume [5]: 6.98; Synergy Score [5]: 9.30; Best CI [6]: 1.09; Bliss Volume [6]: 6.84; HSA volume [6]: 4.63; Loewe Volume [6]: 4.66; Synergy Score [6]: 6.29; Best CI [7]: 0.19; Bliss Volume [7]: 1.51; HSA volume [7]: 0.51; Loewe Volume [7]: 1.48; Synergy Score [7]: 1.13; Best CI [8]: 0.13; Bliss Volume [8]: 19.20; HSA volume [8]: 19.03; Loewe Volume [8]: 18.76; Synergy Score [8]: 37.06; Best CI [9]: 0.23; Bliss Volume [9]: 16.63; HSA volume [9]: 9.61; Loewe Volume [9]: 9.28; Synergy Score [9]: 18.49; Best CI [10]: 0.29; Bliss Volume [10]: 14.10; HSA volume [10]: 5.48; Loewe Volume [10]: 5.54; Synergy Score [10]: 7.00; Best CI [11]: 0.39; Bliss Volume [11]: 20.06; HSA volume [11]: 3.60; Loewe Volume [11]: 1.90; Synergy Score [11]: 2.53; Best CI (HCC38, compound A × partner): 0.60; Best CI Level (HCC38, compound A × partner): 115; Bliss Volume (HCC38, compound A × partner): 8.46; HSA volume (HCC38, compound A × partner): 3.08; Loewe Volume (HCC38, compound A × partner): 2.06; Synergy Score (HCC38, compound A × partner): 6.47; Best CI (HCC70, compound A × partner): 0.45; Best CI Level (HCC70, compound A × partner): 175; Bliss Volume (HCC70, compound A × partner): 18.00; HSA volume (HCC70, compound A × partner): 4.42; Loewe Volume (HCC70, compound A × partner): 2.24; Synergy Score (HCC70, compound A × partner): 9.16; Best CI [12]: 0.39; Bliss Volume [12]: −0.20; HSA volume [12]: −5.78; Loewe Volume [12]: −3.31; Synergy Score [12]: 2.45; Best CI (HCC1569, compound A × partner): 0.43; Best CI Level (HCC1569, compound A × partner): 25; Bliss Volume (HCC1569, compound A × partner): 1.33; HSA volume (HCC1569, compound A × partner): −1.41; Loewe Volume (HCC1569, compound A × partner): −2.74; Synergy Score (HCC1569, compound A × partner): 1.82; Best CI (HCC1806, compound A × partner): 0.22; Best CI Level (HCC1806, compound A × partner): 70; Bliss Volume (HCC1806, compound A × partner): 8.46; HSA volume (HCC1806, compound A × partner): 3.81; Loewe Volume (HCC1806, compound A × partner): 5.93; Synergy Score (HCC1806, compound A × partner): 7.76; Best CI (HCC1937, compound A × partner): 1.07; Best CI Level (HCC1937, compound A × partner): 105; Bliss Volume (HCC1937, compound A × partner): 1.32; HSA volume (HCC1937, compound A × partner): −1.15; Loewe Volume (HCC1937, compound A × partner): −0.59; Synergy Score (HCC1937, compound A × partner): 1.75; Best CI (HCC1954, compound A × partner): 0.84; Best CI Level (HCC1954, compound A × partner): 180; Bliss Volume (HCC1954, compound A × partner): 5.89; HSA volume (HCC1954, compound A × partner): −0.89; Loewe Volume (HCC1954, compound A × partner): −1.88; Synergy Score (HCC1954, compound A × partner): 5.58; Best CI (HCC2218, compound A × partner): 0.54; Best CI Level (HCC2218, compound A × partner): 165; Bliss Volume (HCC2218, compound A × partner): 9.34; HSA volume (HCC2218, compound A × partner): 2.71; Loewe Volume (HCC2218, compound A × partner): −0.66; Synergy Score (HCC2218, compound A × partner): 7.99; Best CI (HDQ-P1, compound A × partner): 0.60; Best CI Level (HDQ-P1, compound A × partner): 30; Bliss Volume (HDQ-P1, compound A × partner): 0.53; HSA volume (HDQ-P1, compound A × partner): −0.23; Loewe Volume (HDQ-P1, compound A × partner): 0.64; Synergy Score (HDQ-P1, compound A × partner): 1.46; Best CI (HMC-1-8, compound A × partner): 0.35; Best CI Level (HMC-1-8, compound A × partner): 180; Bliss Volume (HMC-1-8, compound A × partner): 20.03; HSA volume (HMC-1-8, compound A × partner): 7.01; Loewe Volume (HMC-1-8, compound A × partner): 6.38; Synergy Score (HMC-1-8, compound A × partner): 14.62; Best CI (JIMT-1, compound A × partner): 0.61; Best CI Level (JIMT-1, compound A × partner): 20; Bliss Volume (JIMT-1, compound A × partner): 0.69; HSA volume (JIMT-1, compound A × partner): −1.64; Loewe Volume (JIMT-1, compound A × partner): −0.53; Synergy Score (JIMT-1, compound A × partner): 1.21; Best CI (KPL-1, compound A × partner): 0.76; Best CI Level (KPL-1, compound A × partner): 110; Bliss Volume (KPL-1, compound A × partner): −0.41; HSA volume (KPL-1, compound A × partner): 0.95; Loewe Volume (KPL-1, compound A × partner): 0.45; Synergy Score (KPL-1, compound A × partner): 4.51; Best CI [13]: 0.45; Best CI Level [13]: 150; Bliss Volume [13]: 11.15; HSA volume [13]: 4.64; Loewe Volume [13]: 3.51; Synergy Score [13]: 6.98; Best CI [14]: 0.49; Best CI Level [14]: 60; Bliss Volume [14]: 9.70; HSA volume [14]: −1.47; Loewe Volume [14]: 2.49; Synergy Score [14]: 4.03; Best CI [15]: 0.34; Best CI Level [15]: 70; Bliss Volume [15]: 5.98; HSA volume [15]: 4.74; Loewe Volume [15]: 6.47; Synergy Score [15]: 4.48; Best CI [16]: 0.81; Best CI Level [16]: 165; Bliss Volume [16]: 3.24; HSA volume [16]: −1.91; Loewe Volume [16]: −2.31; Synergy Score [16]: 3.36; Best CI [17]: 1.18; Best CI Level [17]: 120; Bliss Volume [17]: 2.08; HSA volume [17]: 1.62; Loewe Volume [17]: 1.58; Synergy Score [17]: 2.45; Best CI [18]: 0.34; Best CI Level [18]: 70; Bliss Volume [18]: 13.82; HSA volume [18]: 4.06; Loewe Volume [18]: 4.70; Synergy Score [18]: 9.66; Best CI [19]: 0.53; Best CI Level [19]: 105; Bliss Volume [19]: 27.91; HSA volume [19]: 5.89; Loewe Volume [19]: 4.42; Synergy Score [19]: 8.65; Best CI [20]: 0.14; Best CI Level [20]: 150; Bliss Volume [20]: 19.53; HSA volume [20]: 6.00; Loewe Volume [20]: 5.11; Synergy Score [20]: 10.90; Best CI [21]: 0.79; Best CI Level [21]: 20; Bliss Volume [21]: −1.91; HSA volume [21]: −4.36; Loewe Volume [21]: −4.20; Synergy Score [21]: 0.41; Best CI [22]: 0.79; Best CI Level [22]: 80; Bliss Volume [22]: −0.02; HSA volume [22]: 0.03; Loewe Volume [22]: 0.73; Synergy Score [22]: 3.05; Best CI [23]: 0.88; Best CI Level [23]: 155; Bliss Volume [23]: 9.45; HSA volume [23]: 7.38; Loewe Volume [23]: 8.42; Synergy Score [23]: 12.40; Best CI [24]: 0.24; Best CI Level [24]: 95; Bliss Volume [24]: 14.77; HSA volume [24]: 8.48; Loewe Volume [24]: 9.66; Synergy Score [24]: 16.44
